For this assay, the target named is Bromodomain-containing protein 4 (Homo sapiens, UniProt O60885). In words: A mix consisting of 15 nM GST-BRD4-BD1 protein (aa 44-168) or 150 nM GST-BRD4-BD2 (aa 333-460) and 15 nM biotinylated Acetyl-Histone H4 (Lys5, 8, 12, 16) peptide is prepared in assay buffer (50 mM HEPES pH=7.4; 25 mM NaCl; 0.05% Tween 20; 0.1% bovine serum albumin (BSA); 10 mM dithiothreitol (DTT)). 6 μl of the mix is added to the compound dilutions. Subsequently, 6 μl of premixed AlphaLISA Glutathione Acceptor Beads and AlphaScreen Streptavidin Donor Beads from PerkinElmer (in assay buffer at a concentration of 10 μg/ml each) are added and the samples are incubated for 30 min at RT in the dark (shaking 300 rpm). Afterwards, the signal is measured in a PerkinElmer Envision HTS Multilabel Reader using the AlphaScreen protocol from PerkinElmer.Each plate contains negative controls where biotinylated Acetyl-Histone H4 peptide and GST-BRD4-BD1 or GST-BRD4-BD2 are left out and replaced by assay buffer. Negative control values are entered as low basis value when using the software GraphPad Prism for calculations. Furthermore, a positive control (probe molecule JQ1+ with protein/peptide mix) is pipetted. Determination of IC50 values are carried out using GraphPad Prism 3.03 software (or updates thereof).

On to `CNc1nc(-c2nn(C)c(C)c2Oc2ccccc2)cn2c(C)nnc12`, for which the IC50 was 8 nM.

(Values after ChEMBL document CHEMBL5727121, “Substituted [1,2,4]triazolo[4,3-a]pyrazines as BRD4 inhibitors” (2019).)
